Measured values as given in patent US9523693B2, “Methods for determining ligand binding to a target protein using a thermal shift assay” (Biotarget Engagement Interest Group AB, priority 2011, dated 2016).
One block for each molecule: values may come before it.

How the values were obtained:
p38α [1] = molecular target: T1, p38α (Homo sapiens, UniProt Q16539); experiment: Homogeneous AlphaScreen-based CETSA screen in HL-60 cells; format: cell-based; details: both screen concentrations, 10 and 50 μM, 50° C. 3 min
T1 construct: host or cells: HL-60
T1 sequence (Q16539 whole entry): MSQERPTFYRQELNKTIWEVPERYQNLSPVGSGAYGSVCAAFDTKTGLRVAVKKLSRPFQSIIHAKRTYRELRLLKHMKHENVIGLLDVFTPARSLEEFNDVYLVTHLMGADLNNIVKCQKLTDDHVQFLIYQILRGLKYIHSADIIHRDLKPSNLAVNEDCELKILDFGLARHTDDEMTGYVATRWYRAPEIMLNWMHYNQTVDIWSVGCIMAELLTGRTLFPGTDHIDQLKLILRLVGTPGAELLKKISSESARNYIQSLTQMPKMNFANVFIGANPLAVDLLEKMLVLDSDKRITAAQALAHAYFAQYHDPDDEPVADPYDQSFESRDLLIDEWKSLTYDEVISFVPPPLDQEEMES
Method: HL-60 cells were expanded in cell culture medium to a density of approximately 1.5-2 million cells/ml. The cell suspension was collected and the cells transferred to 15 ml conical tubes. The tubes were then centrifuged at 300 g for 3 mins at room temperature and the media was discarded. The cell pellet was resuspended in media to a cell density of about 30 million cells/ml. […] The plates are sealed and stored. The Echo 550 acoustic liquid dispenser was used to place 20 nl of the 10 mM DMSO stock solution in each well of four separate Twin tec PCR plates in columns 1-11. […] The plates were shaken every 10 mins.
The plates were placed in a thermal cycler and heated for 3 mins at 50° C. and were then removed and placed in an aluminium block for 3 mins at room temperature.
140 μl of 1× PerkinElmer lysis buffer was added to all wells and the wells were mixed. 4 μl of the samples were transferred to quadrant one of the 384-well ProxiPlate. This was done for all 96-well plates. […] The chemiluminescence was read with a Envision plate reader and evaluated using data processing software as described previously.
The feasibility of applying the homogeneous assay for screen purposes was assessed by testing the homogeneous assay protocol to determine how this responds to the presence of a small set of test compounds taken from a diversity library. […]

p38α [2] = molecular target: T1, p38α; experiment: CETSA melting curve in HL-60 cells; format: cell-based; details: for apparent Tagg value (average±s.d.): 20 μM compound
Method: HL60 cells were expanded in cell culture medium to about 2 million cells per ml, where approximately 120 million cells were required to determine four melting curves. 15 ml of the 2 million HL60 cells/ml of suspension were added to four separate T75 flasks. […] The same volume of DMSO was added to the remaining flask as a control. The cell suspensions were mixed gently by pipetting. […] The cell suspension was then collected and cells were transferred to 15 ml conical tubes. Cell numbers were counted and cell viability assessed. The conical tubes were then centrifuged at 300 g for 3 minutes at room temperature to pellet the cells and the culture medium was discarded.
Cell pellets were then resuspended with 15 ml PBS and centrifuged for 3 minutes at 300 g at room temperature. 1 ml of PBS supplemented with protease inhibitors was added to each tube and the pellet resuspended. Each cell suspension was distributed into ten different 0.2 ml PCR tubes with 100 μl of cell suspension in each tube, with each of the ten tubes to be heated at a different temperature.
Immediately after hating, the tubes were removed and incubated at room temperature for 3 minutes. The samples were then snap-frozen.
The tubes were vortexed after being thawed and the cell lysates kept on ice after the last thawing. The cell lysates were then centrifuged at 20000 g for 20 minutes at 4° C. to pellet the cell debris. Finally, 90 μl of lysate was then transferred to a new tube for analysis.
Analysis was carried out using the alphascreen format. […] 4 μl of each solution was transferred from the PCR tubes to a separate well of a 384-well ProxiPlate. 5 μl of acceptor beads were added and the plate sealed with a Thermowell plate seal and agitated for 5 minutes at 500 rpm. The plate was then incubated for 2 hours at room temperature. 2 μl of donor beads were then added an the plate sealed and centrifuged at 100 g at room temperature for 10 seconds. The plate was then agitated for 5 minutes at 500 rpm. The plate was incubated at room temperature for at least 2 hours and chemiluminescence read using an Envision plate reader. […]

[3] = molecular target: T2, human soluble PIK3C3 protein (Homo sapiens, UniProt Q8NEB9); experiment: Thermal shift (lysis/filtration blot) in E. coli cells overexpressing PIK3C3 construct; format: cell-based; details: 1 mM Compound 15e or 500 μM Wortmannin, without ligand ca +55°
T2 construct: expressed in transfected cells; host or cells: E. coli
T2 sequence (Q8NEB9 whole entry): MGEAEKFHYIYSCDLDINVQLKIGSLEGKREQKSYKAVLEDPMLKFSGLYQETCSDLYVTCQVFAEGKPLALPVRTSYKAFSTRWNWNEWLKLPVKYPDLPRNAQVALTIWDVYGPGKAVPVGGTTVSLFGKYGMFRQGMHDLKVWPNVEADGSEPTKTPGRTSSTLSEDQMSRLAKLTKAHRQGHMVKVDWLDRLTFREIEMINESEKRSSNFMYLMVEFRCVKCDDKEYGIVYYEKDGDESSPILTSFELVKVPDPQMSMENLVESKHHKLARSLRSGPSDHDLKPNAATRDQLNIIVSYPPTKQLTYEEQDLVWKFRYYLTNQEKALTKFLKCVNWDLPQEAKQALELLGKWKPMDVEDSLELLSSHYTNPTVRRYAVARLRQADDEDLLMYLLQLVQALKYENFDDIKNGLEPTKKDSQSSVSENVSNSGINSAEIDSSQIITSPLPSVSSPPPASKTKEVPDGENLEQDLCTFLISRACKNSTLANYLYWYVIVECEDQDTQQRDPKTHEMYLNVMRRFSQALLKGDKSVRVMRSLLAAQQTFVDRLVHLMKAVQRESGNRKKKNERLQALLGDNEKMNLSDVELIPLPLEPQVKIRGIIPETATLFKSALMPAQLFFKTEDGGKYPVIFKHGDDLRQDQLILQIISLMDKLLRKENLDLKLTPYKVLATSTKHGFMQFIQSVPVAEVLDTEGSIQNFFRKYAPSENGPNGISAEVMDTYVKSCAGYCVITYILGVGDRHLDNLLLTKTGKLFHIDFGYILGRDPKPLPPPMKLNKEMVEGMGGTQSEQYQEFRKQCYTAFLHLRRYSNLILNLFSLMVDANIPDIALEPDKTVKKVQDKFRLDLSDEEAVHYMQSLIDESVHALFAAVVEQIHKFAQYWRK
Description: An expression construct of human soluble PIK3C3 protein in an expression vector with N-terminal His-tag was used to investigate a possible increase in melting temperature of the PIK3C3 construct after addition and binding of either of two PIK3C3 specific inhibitors; Wortmannin and Compound 15e. After treatment with or without one of the two inhibitors the cells expressing the PIK3C3 constructs were exposed to a panel of increasing temperatures and after each temperature step the cells expressing the proteins were spotted onto a “lysis/filtration sandwich” soaked in lysis buffer. By using this lysis/filtration step on the “lysis/filtration sandwich” the soluble protein (up to the construct's specific melting temperature) could be detected on a capturing nitrocellulose membrane as dark spots, whereas precipitated protein (i.e., above its specific melting temperature) was not able to pass through the filter membrane and could therefore not be detected. Melting temperatures of constructs treated with Compound 15e or Wortmannin were compared with those of untreated samples. […]

p38α [4] = molecular target: T1, p38α; experiment: Isothermal dose-response fingerprint (ITDRF CETSA) in HL-60 cells; format: cell-based; details: HL-60 cells heated at 50° C.; western blot and AlphaScreen
Method: Thus, in this method, HL-60 cells were expanded in cell culture medium to a cell density of 1-2 million cells/ml using standard cell culture. The cell suspension was collected and transferred to 15 ml conical tubes. The conical tubes were centrifuged at 300 g for 3 minutes at room temperature and the medium discarded. The cell pellet was resuspended in fresh media to provide a cell density of approximately 40 million cells/ml. […] 100 DMSO was placed in columns 2-12. The stock solutions were serially diluted by transferring 50 from columns 1 to 2, mixing and then by continuing this process one column at a time until column 11, where a final 50 is removed and discarded. Column 12 acted as a control. A second plate was prepared as a backup by splitting the serial dilutions into the second plate. All the serially diluted solutions were diluted 50 fold by adding cell culture media. 5 μl of all diluted compound solutions were then transferred to a Twin.tec PCR plate. […] The plate was shaken every 10 minutes.
The PCR plate was then incubated in a thermal cycler (Techne) and heated for 3 minutes at 50° C. The plate was then placed in an aluminium block for 3 minutes to ensure consistent cooling.
Detection was then carried out using the AlphaScreen method. […] The Luminescence was read using an Envision plate reader and data software (e.g. GraphPad Orism) was used to evaluate the luminescence data. […]

[5] = molecular target: V600E variant B-raf protein (Homo sapiens, UniProt P15056, V600E); details: A375 lysate
Chain of V600E variant B-raf protein (P15056 whole entry V600E): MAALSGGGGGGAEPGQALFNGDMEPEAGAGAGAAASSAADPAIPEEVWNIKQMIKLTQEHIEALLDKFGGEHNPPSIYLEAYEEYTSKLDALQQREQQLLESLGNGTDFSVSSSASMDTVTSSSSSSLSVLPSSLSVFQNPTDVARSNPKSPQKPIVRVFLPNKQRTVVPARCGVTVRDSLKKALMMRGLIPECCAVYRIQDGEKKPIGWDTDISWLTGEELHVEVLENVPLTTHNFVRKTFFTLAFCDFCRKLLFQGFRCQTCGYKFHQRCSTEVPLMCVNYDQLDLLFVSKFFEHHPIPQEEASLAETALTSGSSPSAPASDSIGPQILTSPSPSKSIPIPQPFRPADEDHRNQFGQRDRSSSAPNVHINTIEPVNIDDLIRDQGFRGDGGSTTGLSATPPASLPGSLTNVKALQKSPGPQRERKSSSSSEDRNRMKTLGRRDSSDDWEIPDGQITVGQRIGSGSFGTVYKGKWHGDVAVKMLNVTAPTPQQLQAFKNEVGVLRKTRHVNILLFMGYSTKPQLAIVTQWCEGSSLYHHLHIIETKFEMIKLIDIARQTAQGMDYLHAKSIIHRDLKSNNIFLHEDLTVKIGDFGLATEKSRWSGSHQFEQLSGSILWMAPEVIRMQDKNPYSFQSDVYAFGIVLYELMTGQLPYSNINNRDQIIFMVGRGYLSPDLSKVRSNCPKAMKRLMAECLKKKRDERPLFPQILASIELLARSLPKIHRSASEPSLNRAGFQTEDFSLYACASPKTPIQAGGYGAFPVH
Method: (§1) Lysate was prepared from cultured human A375 cells containing the V600E substitution in B-raf and K562, containing the wild type version thereof. Cells were disrupted on ice in hypotonic buffer and with homogenisation. The suspensions were freeze-thawed multiple times and all insoluble aggregates and cell debris were pelleted by centrifugation after completed lysis. The supernatants containing optically clear cytosolic fraction were each aliquoted into two tubes where each tube contained either the ligand SB590885 dissolved in DMSO or pure DMSO for control. The samples were incubated and subsequently aliquoted into 8-tube PCR strips in fractions of 50 microliters. A series of temperatures were applied to the different samples ranging between +44° C. to +62° C. with 2° C. increments and a 3 minute hold at each temperature. Following heating, the samples were cooled and the precipitated protein pelleted by centrifugation. 20 microliter of each supernatant was removed and supplemented with gel loading buffer and fully denatured by heating. The samples were loaded on a separating gel, which after full run time was blotted onto a nitrocellulose membrane. The membrane was washed and blocked with blocking reagent and probed with primary and secondary antibodies. The signal from the bound secondary antibody was detected by chemiluminescense and recorded with a CCD camera. […]

wild-type B-raf protein = wild-type B-raf protein (Homo sapiens, UniProt P15056); details: K562 lysate
Chain of wild-type B-raf protein (P15056 whole entry): as the sequence (P15056 whole entry V600E) above, with E600V counted along it
Method: as §1

[6] = molecular target: T3, methionine-aminopeptidase-2 (Bos taurus, UniProt Q3ZC89); experiment: Thermal shift in cow liver lysate, Western blot; format: binding
T3 construct: Lysate was prepared for cultured human cells (K562) and cow liver samples; from tissue; host or cells: cow liver
T3 sequence (Q3ZC89 whole entry): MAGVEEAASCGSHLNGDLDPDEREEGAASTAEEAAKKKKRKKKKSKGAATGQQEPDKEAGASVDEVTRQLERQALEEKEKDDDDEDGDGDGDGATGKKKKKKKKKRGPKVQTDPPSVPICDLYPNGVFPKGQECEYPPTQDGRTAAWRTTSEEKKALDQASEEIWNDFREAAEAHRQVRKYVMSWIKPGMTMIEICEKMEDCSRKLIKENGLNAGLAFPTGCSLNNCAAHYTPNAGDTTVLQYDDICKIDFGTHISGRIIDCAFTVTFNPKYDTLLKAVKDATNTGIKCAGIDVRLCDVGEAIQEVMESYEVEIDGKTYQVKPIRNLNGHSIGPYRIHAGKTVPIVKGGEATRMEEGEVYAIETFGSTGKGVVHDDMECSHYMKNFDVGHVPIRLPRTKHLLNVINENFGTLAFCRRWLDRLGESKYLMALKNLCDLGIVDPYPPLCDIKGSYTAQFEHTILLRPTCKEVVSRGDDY
Method: (§2) Studies were done on cells from two different systems: a) intact cow liver biopsies incubated with TNP-470 and b) human cultured cells incubated with TNP-470. […] After treatment with or without the inhibitor, the samples were prepared and subjected to an array of increasing temperatures. The precipitated protein fraction was pelleted by means of centrifugation and the supernatant from each temperature step was analysed on gels and by Western blot. Melting temperatures of proteins treated with TNP-470 were compared to those of untreated samples.
(§3) Lysate was prepared for cultured human cells (K562) and cow liver samples by disruption on ice in hypotonic buffer and with homogenisation. The suspensions were freeze-thawed multiple times and all insoluble aggregates and cell debris were pelleted by centrifugation after completed lysis. The lysate of each cell type was divided into two aliquots, where one was supplemented with TNP-470 (dissolved in pure DMSO) and the other with an equivalent volume of pure DMSO. […]
(§4) Next, a series of temperatures were applied to different samples ranging between +56° C. to +88° C. with 2 or 4° C. increments and a 3 minute hold at each step. […] The signal from the bound secondary antibody was detected by chemiluminescense and recorded with a CCD camera. […]

[7] = molecular target: methionine-aminopeptidase-2 (Homo sapiens, UniProt P50579); experiment: Thermal shift in human K562 cell lysate, Western blot; format: binding
Chain of methionine-aminopeptidase-2 (Homo sapiens, UniProt P50579) (P50579 whole entry): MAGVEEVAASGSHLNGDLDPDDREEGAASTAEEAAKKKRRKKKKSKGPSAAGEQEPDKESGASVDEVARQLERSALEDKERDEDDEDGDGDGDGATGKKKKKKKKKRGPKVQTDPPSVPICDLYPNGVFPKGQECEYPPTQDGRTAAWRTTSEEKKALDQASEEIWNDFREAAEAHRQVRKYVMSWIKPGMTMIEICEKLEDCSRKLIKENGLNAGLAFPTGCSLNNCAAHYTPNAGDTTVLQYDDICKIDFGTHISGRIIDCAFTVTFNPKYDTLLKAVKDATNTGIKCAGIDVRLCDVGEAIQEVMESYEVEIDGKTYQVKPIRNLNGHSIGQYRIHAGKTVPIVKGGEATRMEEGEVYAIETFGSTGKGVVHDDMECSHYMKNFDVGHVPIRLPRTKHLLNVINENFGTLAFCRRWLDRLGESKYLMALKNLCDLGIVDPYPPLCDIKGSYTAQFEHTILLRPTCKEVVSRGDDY
Method: as §2, §3, §4

[8] = molecular target: T4, thymidylate synthase (TS) (Homo sapiens, UniProt P04818); experiment: Thermal shift in A549 cell lysate, Western blot, TS; format: binding; details: ligand at 10 times the described IC50
T4 construct: Lysate was prepared from cultured human adenocarcinoma cells (A549); endogenous in cells; host or cells: A549
T4 sequence (P04818 2-313 limits assumed): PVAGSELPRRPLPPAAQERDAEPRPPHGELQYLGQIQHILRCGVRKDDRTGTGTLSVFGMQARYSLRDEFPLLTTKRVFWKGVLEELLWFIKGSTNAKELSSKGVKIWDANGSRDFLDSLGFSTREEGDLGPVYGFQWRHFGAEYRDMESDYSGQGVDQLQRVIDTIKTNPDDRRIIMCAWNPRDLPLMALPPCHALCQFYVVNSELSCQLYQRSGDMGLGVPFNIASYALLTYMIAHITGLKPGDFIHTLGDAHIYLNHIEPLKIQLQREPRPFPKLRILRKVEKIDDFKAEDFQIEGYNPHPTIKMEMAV
Description: Cells were disrupted on ice in hypotonic buffer and with homogenisation. The suspensions were freeze-thawed multiple times and all insoluble aggregates and cell debris were pelleted by centrifugation after completed lysis.
The signal from the bound secondary antibody was detected by chemiluminescense and recorded with a CCD camera. The intensities were plotted to visualize the changes in melting temperature following ligand treatment.

Structure (SMILES): Cn1c(NC[C@@H](N)Cc2ccccc2)nc(-c2ccncc2)c(-c2ccc3ccccc3c2)c1=O [AMG-548]
screen outcome (increase of the AlphaScreen signal vs DMSO-only controls) (p38α [1]): stabilizing hits | apparent Tagg value (average±s.d.) (p38α [2]; AlphaScreen detection, no inhibitor 46.7±0.7): 59.2±0.9 °C | apparent Tagg value (average±s.d.) (p38α [2]; western blot detection, no inhibitor 48±0.8): 60.6±1.0 °C

Structure (SMILES): Oc1cccc(-c2nc(N3CCOCC3)c3sccc3n2)c1 [Compound 15e, 3-[4-(4-Morpholinyl)thieno[3,2-d]pyrimidin-2-yl]-phenol]
melting temperature after addition of inhibitor [3]: ~58 °C

Structure (SMILES): CO[C@@H]1[C@H](OC(=O)NC(=O)CCl)CC[C@]2(CO2)[C@H]1[C@@]1(C)O[C@@H]1CC=C(C)C [TNP-470]
shift in melting temperature [6]: 14 ° | melting temperature after addition of ligand ([6]; without ligand 66° C.): 80 °C | shift in melting temperature [7]: 18 °C | melting temperature after addition of ligand ([7]; without ligand 62° C.): 80 °C

Further lines, with some results ahead:

thermal stabilization of p38α within the tested concentration range (p38α [4]): did not result in any stabilization | shift of the apparent Tagg (response) (p38α [2]; 20 μM): lack of a substantial response
Structure (SMILES): Cc1cnc(Nc2ccc(F)cc2Cl)nc1-c1c[nH]c(C(=O)N[C@H](CO)c2cccc(Cl)c2)c1 [ERK 11e]
screen outcome (increase of the AlphaScreen signal vs DMSO-only controls) (p38α [1]): cannot be distinguished from the rest of the inactive compounds

increase in the melting temperature [5]: ~6 °C | increase in the melting temperature (wild-type B-raf protein): 3 °C
Structure (SMILES): CN(C)CCOc1ccc(-c2nc(-c3ccncc3)c(-c3ccc4c(c3)CC/C4=N\O)[nH]2)cc1 [SB590885]

change of melting temperature of TS [8]: increased melting temperature
Structure (SMILES): Cc1nc2ccc(CN(C)c3ccc(C(=O)N[C@@H](CCC(=O)O)C(=O)O)s3)cc2c(=O)[nH]1 [raltitrexed]
